IC50 data for two molecules are collected here from paper PMC9948186 (ACS Omega, 2023).

The test has as its target T1, Microtubule affinity regulatory kinase 4 (MARK4) (Homo sapiens, UniProt Q96L34).
T1 sequence (Q96L34 1-752): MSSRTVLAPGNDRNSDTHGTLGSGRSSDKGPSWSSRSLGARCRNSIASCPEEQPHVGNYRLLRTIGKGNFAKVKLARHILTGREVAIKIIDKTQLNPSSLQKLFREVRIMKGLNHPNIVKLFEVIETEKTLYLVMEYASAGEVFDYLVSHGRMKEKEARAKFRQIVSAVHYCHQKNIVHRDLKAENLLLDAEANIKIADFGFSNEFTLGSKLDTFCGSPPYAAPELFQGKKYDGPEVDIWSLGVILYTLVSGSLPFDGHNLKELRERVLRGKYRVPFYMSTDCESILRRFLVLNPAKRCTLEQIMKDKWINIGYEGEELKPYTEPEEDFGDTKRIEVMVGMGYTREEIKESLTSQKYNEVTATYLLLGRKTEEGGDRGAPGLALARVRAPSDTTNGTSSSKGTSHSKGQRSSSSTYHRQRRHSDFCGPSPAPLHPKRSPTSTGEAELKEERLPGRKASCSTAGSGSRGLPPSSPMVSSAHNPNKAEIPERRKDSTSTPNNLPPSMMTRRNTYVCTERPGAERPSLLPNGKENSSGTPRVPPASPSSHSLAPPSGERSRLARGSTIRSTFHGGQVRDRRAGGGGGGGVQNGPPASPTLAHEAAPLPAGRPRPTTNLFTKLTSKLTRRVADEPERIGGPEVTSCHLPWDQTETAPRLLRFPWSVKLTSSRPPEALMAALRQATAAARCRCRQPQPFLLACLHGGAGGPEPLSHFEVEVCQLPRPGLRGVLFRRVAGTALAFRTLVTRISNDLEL
Briefly: malachite green ATPase. The test is classed as biochemical.

As to `OC[C@H]1O[C@@H](c2ccc(Cl)c(Cc3ccc(O[C@H]4CCOC4)cc3)c2)[C@H](O)[C@@H](O)[C@@H]1O` [empagliflozin], the midpoint of inhibition, the IC50, lay at 7.1 µM.
For `CC#CCn1c(N2CCC[C@@H](N)C2)nc2c1c(=O)n(Cc1nc(C)c3ccccc3n1)c(=O)n2C` [linagliptin], half-maximal inhibition (IC50) was put at 7.63 µM.

What is called IC50 is the concentration at which inhibition is half-maximal. A high value points to a need for much substance.
